Test results from PMC9521028, “Lengthening the Guanidine–Aryl Linker of Phenylpyrimidinylguanidines Increases Their Potency as Inhibitors of FOXO3-Induced Gene Transcription” (ACS Omega, 2022).
In brackets after ≈: the same amount, converted by molar mass. Entries after “also recorded” stand apart in the source; their conditions may differ.

Key:
[1] = Estimation of compound solubility in water (saturated solution, UV-vis); type: physicochemical; details: for solubility at 48 h: aqueous buffer, thermodynamic from solid, 20 mM phosphate (pH 6.5) and 50 mM KCl buffer at 23 °C
Description: To estimate the solubility, we prepared saturated solutions of the compounds by adding 5 mg of each selected compound to 700 μL of 20 mM phosphate buffer (pH 6.5) containing 50 mM KCl. After 48 h of gentle agitation at room temperature (RT), the solutions were spun down, and the supernatant was filtered through 0.2 μm of SPARTAN 13/0.2 RC filter units (Merck KgaA, Darmstadt, Germany) and diluted 100–200× in the same phosphate buffer. The diluted solutions were transferred into the quartz cuvette, recording UV–vis absorption spectra in the range from 200 to 600 nm on a UV-1800 UV/visible scanning spectrophotometer (Shimadzu, Kyoto, Japan) at room temperature. The compound concentrations were estimated by the single point calibration using the absorption at wavelengths higher than 240 nm outside of DMSO absorption of 2000× diluted 50 mM DMSO-dissolved stock solution in phosphate buffer.

[2] = tested on: FOXO3 binding to the promoter region of DEPP1 in SH-EP/FOXO3 cells; assay: DEPP1-luciferase reporter assay of FOXO3 transcriptional activity; type: cell-based; details: for potency in blocking FOXO3 binding to the promoter region of DEPP1, compared with 5ca: initial screen, 50 μM compound; for inhibitory potency on target gene activation by FOXO3 (in words): summary of the reporter data, Figures 2, S2, S3; for potency in blocking FOXO3 binding to the promoter region of DEPP1: 25 and 12.5 μM compound; for efficiency of blocking FOXO3 binding to the promoter region of DEPP1: lower concentrations, down to 0.78 μM
Description: (§1) The ability of these compounds to inhibit FOXO3 transcriptional activity was further examined by assessing their effect on FOXO3 binding to the promoter region of decidual protein induced by progesterone 1 (DEPP1) after transfecting a DEPP1-luciferase reporter plasmid into SH-EP neuroblastoma cells stably expressing a 4-hydroxy-tamoxifen (4OHT)-regulated FOXO3(A3)ERtm transgene. […] In parallel, the toxicity of the compounds was tested by assessing their effect on endogenous DEPP1 and actin promoters in SH-EP cells.
Transcriptional activation of the DEPP1 promoter by conditional FOXO3 was assessed after transfection of a DEPP1-luciferase reporter plasmid pGS c10orf10 Prom wt (DEPP1-LUC)[20] into SH-EP/FOXO3 cells using the JetPrime reagent (Polyplus, Berkeley). After 24 h of transfection, mTFP fluorescent protein expression from a cotransfected expression vector was assessed by live cell fluorescence microscopy to verify equal transfection rates before seeding cells into 24-well plates. After 48 h of transfection, the cells were pretreated with indicated concentrations of each compound (30 min) before adding 100 nM 4-hydroxy-tamoxifen (4OHT) for 3 h to activate ectopic FOXO3. Firefly-luciferase was analyzed using the Luciferase Assay System (Promega, Madison). Luminescence intensity was measured in a Hidex Chameleon—Multilabel Microplate Reader (Hidex, Turku, Finland).

[3] = biological target: T1, recombinant DNA-binding domain of human FOXO3 (residues 156–269, FOXO3-DBD) (Homo sapiens, UniProt O43524); assay: Fluorescence polarization (FP) assay of FOXO3-DBD binding to FAM-labeled IRE dsDNA; details: compound 1 μM; 125 nM FOXO3-DBD, 25 nM FAM-dsDNA
T1 construct: DNA encoding human FOXO3-DBD (residues 156–269); GST (N, cleaved yes); made in house; host or cells: E. coli BL21(DE3)
T1 sequence (O43524 156-269): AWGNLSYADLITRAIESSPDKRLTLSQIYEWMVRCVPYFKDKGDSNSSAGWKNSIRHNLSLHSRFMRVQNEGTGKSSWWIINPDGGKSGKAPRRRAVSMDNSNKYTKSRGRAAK
Description: The FOXO3 inhibition potency of the phenylpyrimidinylguanidine derivatives was first examined in a fluorescence polarization (FP) assay using the recombinant DNA-binding domain of human FOXO3 (residues 156–269, denoted as FOXO3-DBD) and FAM-labeled dsDNA containing the insulin-response element (IRE) consensus motif (Figure S1).
The final concentration of DMSO in all mixtures was adjusted to 5% (v/v). Positive (only assay buffer and FAM-labeled oligonucleotide) and negative (FOXO3-DBD and FAM-labeled oligonucleotide) controls were analyzed on each plate. Milli polarization values (mP) were measured at an excitation wavelength of 485 nm and an emission wavelength of 530 nm.

[4] = tested on: FOXO3-induced apoptotic cell death in SH-EP/FOXO3 neuroblastoma cells; assay: Resazurin early cell death evaluation assay; type: cell-based; details: for IC50: Neuroblastoma cell, 100 nM 4OHT, 24 h, approximate, toxicity prevented accurate determination, read-out: IC50, inhibition of FOXO3-induced cell death; for IC50 / concentration above which the compound is toxic (spontaneous cell death): SH-EP/FOXO3 cells; for fold lower IC50 than that of 5ca: resazurin assay, ratio to 5ca IC50 of ∼8 μM
Description: Moreover, we also attempted to determine the IC50 values of 5ci, 5cj, and 5db using a resazurin early cell death evaluation assay in cells expressing a conditional FOXO3 allele that triggers apoptotic cell death upon activation.
Neuroblastoma cells SH-EP/FOXO3 were seeded into 96-well plates and treated with concentrations 0.05, 0.1, 0.2, 0.39, 0.78, 1.56, 3.125, 6.25, 12.5, 18.75, and 25 μM of 5ca and its derivatives 30 min before activating ectopic FOXO3 by 100 nM 4OHT. For 5ca derivatives, concentrations above 3.125 μM had to be excluded from the analysis due to spontaneous cell death induction. Resazurin salt (Sigma-Aldrich s.r.o., St. Louis, Missouri) was diluted to a final concentration of 0.01% (wt/vol), and 20 μL of this dilution was added to 200 μL of the cell culture in each well 24 h after FOXO3 activation. Resazurin is reduced in viable cells to red-fluorescent resoflurin, which was quantified in a Hidex Chameleon—Multilabel Microplate Reader (Hidex, Turku, Finland) at filter settings 544 nm Ex/616 nm Em.

FOXO3 = tested on: FOXO3; set-up: method as in PMID 31591479, PMID 31789593; details: inhibit the transcriptional program of FOXO3; cited from earlier work
[5] = tested on: endogenous DEPP1 and actin promoters in SH-EP cells; assay: Toxicity control: endogenous DEPP1 and actin promoter luciferase reporters; type: cell-based
Description: as §1
For this purpose, 2 × 10^6 SH-EP cells were transfected with either a DEPP1-LUC-reporter plasmid or an actin-LUC reporter plasmid using JetPrime reagent (Polyplus, Berkeley). Actin-LUC was constructed by inserting a 1.3 kb fragment of the chicken β actin promoter into pGL3-luc reporter vector (Promega, Madison). After 24 h of transfection, the cells were seeded into 24-well plates. After another 24 h, the cells were pretreated with indicated concentrations of compound for 3.5 h. Firefly-luciferase was analyzed using the Luciferase Assay System (Promega, Madison). Luminescence intensity was measured in a Hidex Chameleon—Multilabel Microplate Reader (Hidex, Turku, Finland).

| Compound | solubility at 48 h [1] | potency in blocking FOXO3 binding to the promoter region of DEPP1, compared with 5ca [2] | solubility in water (in words) [1] | inhibitory potency on target gene activation by FOXO3 (in words) [2] | potency in blocking FOXO3 binding to the promoter region of DEPP1 [2] | also measured |
| --- | --- | --- | --- | --- | --- | --- |
| CCCOc1ccc(NC(=N)Nc2nc(C)cc(O)n2)cc1 [5aa, 1-(4-Hydroxy-6-methylpyrimidin-2-yl)-3-(4-propoxyphenyl)guanidine] | 100 µM (≈ 30.1 µg/mL) |  |  |  |  |  |
| CCCOc1ccc(NC(=N)Nc2nc(C)cc(Cl)n2)cc1 [5ba, 1-(4-Chloro-6-methylpyrimidin-2-yl)-3-(4-propoxyphenyl)guanidine] | 20000 µM (≈ 6400 µg/mL) | more potent than 5ca |  |  |  |  |
| CCCOc1ccc(NC(=N)Nc2nc(C)cc(C)n2)cc1 [5ca, 1-(4,6-Dimethylpyrimidin-2-yl)-3-(4-propoxyphenyl)guanidine] | 2000 µM (≈ 599 µg/mL) |  |  |  |  | reduction of FOXO3-DBD binding to FAM-IRE dsDNA [3]: approximately 20%; IC50 [4]: ~8000 nM; concentration above which the compound is toxic (spontaneous cell death) [4]: higher than 25 μM; concentration range of FOXO3 inhibition in cancer cells (FOXO3): low micromolar range |
| Cc1cc(C)nc(NC(=N)Nc2ccccc2)n1 [5cb, 1-(4,6-Dimethylpyrimidin-2-yl)-3-phenylguanidine] | 4000 µM (≈ 965 µg/mL) | less potent FOXO3 inhibitors than 5ca | insufficient solubility in water | lower ability to inhibit FOXO3 |  |  |
| Cc1cc(C)nc(NC(=N)NCc2ccccc2)n1 [5cc, 1-Benzyl-3-(4,6-dimethylpyrimidin-2-yl)guanidine] | 10000 µM (≈ 2550 µg/mL) | less potent FOXO3 inhibitors than 5ca | significantly increased solubility in water | lower ability to inhibit FOXO3 |  |  |
| Cc1ccc(CNC(=N)Nc2nc(C)cc(C)n2)cc1 [5cd, 1-(4,6-Dimethylpyrimidin-2-yl)-3-(4-methylbenzyl)guanidine] | 7000 µM (≈ 1890 µg/mL) |  | improved solubility | did not increase the inhibitory potency |  |  |
| Cc1cccc(CNC(=N)Nc2nc(C)cc(C)n2)c1 [5ce, 1-(4,6-Dimethylpyrimidin-2-yl)-3-(3-methylbenzyl)guanidine] | 4000 µM (≈ 1080 µg/mL) | less potent FOXO3 inhibitors than 5ca |  | did not increase the inhibitory potency |  |  |
| Cc1cc(C)nc(NC(=N)NCc2ccccc2C)n1 [5cf, 1-(4,6-Dimethylpyrimidin-2-yl)-3-(2-methylbenzyl)guanidine] | 2000 µM (≈ 539 µg/mL) |  |  | did not increase the inhibitory potency |  |  |
| Cc1cc(C)nc(NC(=N)NCc2ccc(C(C)(C)C)cc2)n1 [5cg, 1-(4-(tert-Butyl)benzyl)-3-(4,6-dimethylpyrimidin-2-yl)guanidine] | 200 µM (≈ 62.3 µg/mL) | more potent than 5ca | limited the solubility | increased FOXO3 inhibition | the most potent compounds |  |
| Cc1cc(C)nc(NC(=N)NCc2ccc(F)cc2)n1 [5ch, 1-(4,6-Dimethylpyrimidin-2-yl)-3-(4-fluorobenzyl)guanidine] | 6000 µM (≈ 1640 µg/mL) | less potent FOXO3 inhibitors than 5ca | sufficient solubility in water | did not increase the inhibitory potency |  |  |
| Cc1cc(C)nc(NC(=N)NCc2cccc3ccccc23)n1 [5ci, 1-(4,6-Dimethylpyrimidin-2-yl)-3-(naphthalen-1-ylmethyl)guanidine] | 700 µM (≈ 214 µg/mL) | more potent than 5ca | low solubility | increased FOXO3 inhibition | the most potent compounds | efficiency of blocking FOXO3 binding to the promoter region of DEPP1 [2]: more efficiently than 5cg, 5da, and 5dc; inhibition of FOXO3-mediated transcription ([2]; lowest concentration tested, 0.78 μM): significantly inhibited; effect on endogenous DEPP1 and actin promoters (toxicity markers) ([5]; 0.78 μM, SH-EP cells): without any effect; IC50 [4]: ~500 nM; concentration above which the compound is toxic (spontaneous cell death) [4]: higher than 4 μM; fold lower IC50 than that of 5ca [4]: 8–16 × |
| CCCOc1ccc(NC(=N)Nc2nc(C)cc(NCc3ccccc3)n2)cc1 [5da, 1-(4-(Benzylamino)-6-methylpyrimidin-2-yl)-3-(4-propoxyphenyl)guanidine] | 200 µM (≈ 78.1 µg/mL) | more potent than 5ca |  |  | the most potent compounds |  |
| CCCOc1ccc(NC(=N)Nc2nc(C)cc(NCCc3ccccc3)n2)cc1 [5db, 1-(4-Methyl-6-(phenethylamino)pyrimidin-2-yl)-3-(4-propoxyphenyl)guanidine] | 300 µM (≈ 121 µg/mL) | more potent than 5ca | low solubility; also recorded: very low solubility | strongest inhibitor | the most potent compounds | efficiency of blocking FOXO3 binding to the promoter region of DEPP1 [2]: more efficiently than 5cg, 5da, and 5dc; toxicity compared with other derivatives ([5]; higher concentrations, Figure 2): more toxic than 5ci and 5cj at higher concentrations; IC50 [4]: ~500 nM; concentration above which the compound is toxic (spontaneous cell death) [4]: higher than 4 μM; fold lower IC50 than that of 5ca [4]: 8–16 × |
| CCCCNc1cc(C)nc(NC(=N)Nc2ccc(OCCC)cc2)n1 [5dc, 1-(4-(Butylamino)-6-methylpyrimidin-2-yl)-3-(4-propoxyphenyl)guanidine] | 1700 µM (≈ 606 µg/mL) | more potent than 5ca | low solubility | slightly lower inhibitory efficacy than 5cj, 5ci, and 5db | the most potent compounds |  |
| CC1(C)[C@@H](OC(=O)CCC(=O)O)CC[C@]2(C)[C@H]3C(=O)C=C4[C@@H]5C[C@@](C)(C(=O)O)CC[C@]5(C)CC[C@@]4(C)[C@]3(C)CC[C@@H]12 [carbenoxolone] |  |  |  |  |  | concentration range of FOXO3 inhibition in cancer cells (FOXO3): low micromolar range |
| CCOc1cc(CC(=O)N[C@@H](CC(C)C)c2ccccc2N2CCCCC2)ccc1C(=O)O [repaglinide] |  |  |  |  |  | concentration range of FOXO3 inhibition in cancer cells (FOXO3): low micromolar range |
